Assay results from patent US20250171437A1 (Agios Pharmaceuticals,Inc., priority 2022, published 2025).

Each compound was assayed against T1, human PAH with the R408W mutation (A375 R408W cells) (Homo sapiens, UniProt P00439, R408W) (assay: Cell Based Phenylalanine Flux Assay). Conditions: A375 R408W cells; 24 hrs with compound, then 20 μM sepiapterin and 800 μM 13C9,15N-Phenylalanine for 4 hours; 13C-Tyrosine by LC-MS; average where tested multiple times.
T1 construct: expressed in transfected cells
T1 sequence (P00439 1-452 R408W): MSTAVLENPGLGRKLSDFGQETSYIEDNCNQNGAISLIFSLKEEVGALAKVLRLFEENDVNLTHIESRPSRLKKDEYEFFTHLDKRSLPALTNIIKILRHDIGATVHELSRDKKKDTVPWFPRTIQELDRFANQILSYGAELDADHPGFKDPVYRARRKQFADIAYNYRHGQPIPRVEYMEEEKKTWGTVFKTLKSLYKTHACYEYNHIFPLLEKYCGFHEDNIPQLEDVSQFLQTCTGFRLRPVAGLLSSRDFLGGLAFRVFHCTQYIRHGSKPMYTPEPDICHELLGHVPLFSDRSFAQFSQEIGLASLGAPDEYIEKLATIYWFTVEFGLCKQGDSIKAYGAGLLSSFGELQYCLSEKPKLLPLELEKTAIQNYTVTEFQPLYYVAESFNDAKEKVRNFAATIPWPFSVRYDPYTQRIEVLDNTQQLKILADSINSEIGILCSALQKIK
Procedure, shortened: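 Phenylalanine-to-tyrosine flux is measured in A375 cells carrying stable human R408W PAH. After 24 h compound exposure, 13C9,15N-Phe (800 μM) with sepiapterin (20 μM) is supplied for 4 h and media 13C-Tyr is read by LC-MS; AC50s are binned.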

Which AC50 does the source give for `O=C(c1ocnc1C(F)F)N1CCc2[nH]cnc2[C@H]1c1nc2c(F)c(F)ccc2o1` [Example 350, (S)-(4-(4,5-difluorobenzo[d]oxazol-2-yl)-6,7-dihydro-1H-imidazo[4,5-c]pyridin-5(4H)-yl)(4-(difluoromethyl)oxazol-5-yl)methanone] here?
Its AC50 is at most 500 nM.

How did the AC50 turn out when `COc1cccc2oc([C@H]3c4nc[nH]c4CCN3C(=O)c3nc(C)nn3C)nc12` [Example 828, (R)-(1,3-dimethyl-1H-1,2,4-triazol-5-yl)(4-(4-methoxybenzo[d]oxazol-2-yl)-6,7-dihydro-1H-imidazo[4,5-c]pyridin-5(4H)-yl)methanone] was run?
Its AC50 is at least 5000 nM.

`Cc1ncoc1C(=O)N1CCc2[nH]cnc2[C@H]1c1nc2ccc(F)cc2o1` [Example 597, (S)-(4-(6-fluorobenzo[d]oxazol-2-yl)-6,7-dihydro-1H-imidazo[4,5-c]pyridin-5(4H)-yl)(4-methyloxazol-5-yl)methanone] was tested. Which AC50 did it give?
The AC50 was at most 500 nM.

`Cc1ccc2oc([C@@H]3c4nc[nH]c4CCN3C(=O)c3nnc(-c4ccccn4)o3)nc2c1` [Example 97, (S)-(4-(5-methylbenzo[d]oxazol-2-yl)-6,7-dihydro-1H-imidazo[4,5-c]pyridin-5(4H)-yl)(5-(pyridin-2-yl)-1,3,4-oxadiazol-2-yl)methanone] was tested. Which AC50 did it give?
Its AC50 is at most 500 nM.

Which AC50 does the source give for `CC(C)(CO)c1nc(C(F)F)c(C(=O)N2CCc3[nH]cnc3[C@@H]2c2nc3cc(F)ccc3o2)o1` [Example 823, (R)-(4-(difluoromethyl)-2-(1-hydroxy-2-methylpropan-2-yl)oxazol-5-yl)(4-(5-fluorobenzo[d]oxazol-2-yl)-6,7-dihydro-1H-imidazo[4,5-c]pyridin-5(4H)-yl)methanone] here?
Its AC50 is 1000 to 5000 nM.

For `Cc1cccc2oc([C@H]3c4nc[nH]c4CCN3C(=O)c3nc(C(F)F)nn3C)nc12` [Example 448, (R)-(3-(difluoromethyl)-1-methyl-1H-1,2,4-triazol-5-yl)(4-(4-methylbenzo[d]oxazol-2-yl)-6,7-dihydro-1H-imidazo[4,5-c]pyridin-5(4H)-yl)methanone], which AC50 is on record?
The AC50 was 1000 to 5000 nM.

`COc1cccc2nc([C@H]3c4nc[nH]c4CCN3C(=O)c3ccnn3C)oc12` [Example 750, (R)-(4-(7-methoxybenzo[d]oxazol-2-yl)-6,7-dihydro-1H-imidazo[4,5-c]pyridin-5(4H)-yl)(1-methyl-1H-pyrazol-5-yl)methanone] was tested. Which AC50 did it give?
The AC50 was 1000 to 5000 nM.

For `Cn1nc(Br)nc1C(=O)N1CCc2[nH]cnc2[C@H]1c1nc2cccc(F)c2o1` [Example 473, (S)-(3-bromo-1-methyl-1H-1,2,4-triazol-5-yl)(4-(7-fluorobenzo[d]oxazol-2-yl)-6,7-dihydro-1H-imidazo[4,5-c]pyridin-5(4H)-yl)methanone], which AC50 is on record?
Its AC50 is 500 to 1000 nM.

Which AC50 does the source give for `O=C(c1ocnc1C(F)F)N1CCc2[nH]cnc2[C@H]1c1nc2ccc(F)c(F)c2o1` [Example 305, (S)-(4-(6,7-difluorobenzo[d]oxazol-2-yl)-6,7-dihydro-1H-imidazo[4,5-c]pyridin-5(4H)-yl)(4-(difluoromethyl)oxazol-5-yl)methanone] here?
Its AC50 is at most 500 nM.

For `Cn1nc(C(F)F)nc1C(=O)N1CCc2[nH]cnc2[C@@H]1c1nc2ccccc2o1` [Example 562, (R)-(4-(benzo[d]oxazol-2-yl)-6,7-dihydro-1H-imidazo[4,5-c]pyridin-5(4H)-yl)(3-(difluoromethyl)-1-methyl-1H-1,2,4-triazol-5-yl)methanone], which AC50 is on record?
Its AC50 is 1000 to 5000 nM.

How did the AC50 turn out when `O=C(c1ocnc1C(F)F)N1CC2(CC2)c2[nH]cnc2[C@@H]1c1nc2cccc(F)c2o1` [Example 912, (R)-(4-(difluoromethyl)oxazol-5-yl)(4′-(7-fluorobenzo[d]oxazol-2-yl)spiro[cyclopropane-1,7′-imidazo[4,5-c]pyridin]-5′(1′H,4′H,6′H)-yl)methanone] was run?
The AC50 was 500 to 1000 nM.

For `O=C(c1cnn2cc(N3CCOCC3)c(Cl)cc12)N1CCc2[nH]cnc2[C@@H]1c1nc2cc(F)ccc2o1` [Example 176, (R)-(5-chloro-6-morpholinopyrazolo[1,5-a]pyridin-3-yl)(4-(5-fluorobenzo[d]oxazol-2-yl)-6,7-dihydro-1H-imidazo[4,5-c]pyridin-5(4H)-yl)methanone], which AC50 is on record?
Its AC50 is 1000 to 5000 nM.

How did the AC50 turn out when `COc1cc(F)cc2nc([C@@H]3c4nc[nH]c4CCN3C(=O)c3ocnc3C(F)F)oc12` [Example 718, (S)-(4-(difluoromethyl)oxazol-5-yl)(4-(5-fluoro-7-methoxybenzo[d]oxazol-2-yl)-6,7-dihydro-1H-imidazo[4,5-c]pyridin-5(4H)-yl)methanone] was run?
Its AC50 is at most 500 nM.

How did the AC50 turn out when `Cc1nc([C@H](C)O)oc1C(=O)N1CCc2[nH]cnc2[C@H]1c1nc2cccc(F)c2o1` [Example 247, ((S)-4-(7-fluorobenzo[d]oxazol-2-yl)-6,7-dihydro-1H-imidazo[4,5-c]pyridin-5(4H)-yl)(2-((S)-1-hydroxyethyl)-4-methyloxazol-5-yl)methanone] was run?
The AC50 was 500 to 1000 nM.

`O=C(c1ocnc1C(F)(F)F)N1Cc2[nH]cnc2[C@@H]1c1nc2ccccc2o1` [Example 943, (R)-(4-(benzo[d]oxazol-2-yl)-4,6-dihydropyrrolo[3,4-d]imidazol-5(1H)-yl)(4-(trifluoromethyl)oxazol-5-yl)methanone] was tested. Which AC50 did it give?
Its AC50 is 1000 to 5000 nM.

With `O=C(c1ocnc1C(F)F)N1CCc2[nH]cnc2[C@@H]1c1nc2c(F)cc(F)cc2o1` [Example 302, (R)-(4-(4,6-difluorobenzo[d]oxazol-2-yl)-6,7-dihydro-1H-imidazo[4,5-c]pyridin-5(4H)-yl)(4-(difluoromethyl)oxazol-5-yl)methanone] as the compound, how does the AC50 read?
The AC50 was 1000 to 5000 nM.

How did the AC50 turn out when `CC(C)(O)c1nc(Cl)c(C(=O)N2CCc3[nH]cnc3[C@@H]2c2nc3cccc(F)c3o2)o1` [Example 271, (R)-(4-chloro-2-(2-hydroxypropan-2-yl)oxazol-5-yl)(4-(7-fluorobenzo[d]oxazol-2-yl)-6,7-dihydro-1H-imidazo[4,5-c]pyridin-5(4H)-yl)methanone] was run?
The AC50 was 1000 to 5000 nM.

How did the AC50 turn out when `Cn1cnc(-c2nnc(C(=O)N3CCc4[nH]cnc4[C@H]3c3nc4c(F)ccc(F)c4o3)o2)c1` [Example 817, (S)-(4-(4,7-difluorobenzo[d]oxazol-2-yl)-6,7-dihydro-1H-imidazo[4,5-c]pyridin-5(4H)-yl)(5-(1-methyl-1H-imidazol-4-yl)-1,3,4-oxadiazol-2-yl)methanone] was run?
The AC50 was 500 to 1000 nM.

How did the AC50 turn out when `Cc1ncoc1C(=O)N1CCc2[nH]cnc2[C@H]1c1nc2c(F)cccc2o1` [Example 599, (S)-(4-(4-fluorobenzo[d]oxazol-2-yl)-6,7-dihydro-1H-imidazo[4,5-c]pyridin-5(4H)-yl)(4-methyloxazol-5-yl)methanone] was run?
Its AC50 is at most 500 nM.

How did the AC50 turn out when `CC(C)(O)c1nc(C(F)F)c(C(=O)N2CCc3[nH]cnc3[C@H]2c2nc3c(F)ccc(F)c3o2)o1` [Example 345, (S)-(4-(4,7-difluorobenzo[d]oxazol-2-yl)-6,7-dihydro-1H-imidazo[4,5-c]pyridin-5(4H)-yl)(4-(difluoromethyl)-2-(2-hydroxypropan-2-yl)oxazol-5-yl)methanone] was run?
The AC50 was at most 500 nM.

`O=C(c1cnn2cc(Br)ccc12)N1CCc2[nH]cnc2[C@H]1c1nc2cc(F)ccc2o1` [Example 69, (S)-(6-bromopyrazolo[1,5-a]pyridin-3-yl)(4-(5-fluorobenzo[d]oxazol-2-yl)-6,7-dihydro-1H-imidazo[4,5-c]pyridin-5(4H)-yl)methanone] was tested. Which AC50 did it give?
The AC50 was 500 to 1000 nM.

How did the AC50 turn out when `Cn1cnc(-c2nc(C(F)F)c(C(=O)N3CCc4[nH]cnc4[C@H]3c3nc4ccccc4o3)o2)c1` [Example 786, (S)-(4-(benzo[d]oxazol-2-yl)-6,7-dihydro-1H-imidazo[4,5-c]pyridin-5(4H)-yl)(4-(difluoromethyl)-2-(1-methyl-1H-imidazol-4-yl)oxazol-5-yl)methanone] was run?
Its AC50 is 500 to 1000 nM.

Which AC50 does the source give for `COc1cccc2oc([C@@H]3c4nc[nH]c4CCN3C(=O)c3ccnn3C(F)F)nc12` [Example 603, (S)-(1-(difluoromethyl)-1H-pyrazol-5-yl)(4-(4-methoxybenzo[d]oxazol-2-yl)-6,7-dihydro-1H-imidazo[4,5-c]pyridin-5(4H)-yl)methanone] here?
Its AC50 is at most 500 nM.

Same assay, conditions: A375 cells expressing R408W PAH; 24 hrs with compound, then 20 μM sepiapterin and 800 μM 13C9,15N-Phenylalanine for 4 hours; 13C-Tyrosine by LC-MS; average where tested multiple times

Which AC50 does the source give for `O=C(C1CC1)N1CCc2[nH]cnc2C1c1nc2cc(F)ccc2o1` (stereo not drawn) here?
The AC50 was 1000 to 5000 nM.

`O=C(c1cnn2cc(N3CCC4(CC3)CC4)ccc12)N1CCc2[nH]cnc2C1c1nc2cc(F)ccc2o1` (stereo not drawn) was tested. Which AC50 did it give?
The AC50 was 1000 to 5000 nM.

How did the AC50 turn out when `Cn1nc(C(C)(C)C)nc1C(=O)N1CCc2[nH]cnc2C1c1nc2cccc(F)c2o1` (stereo not drawn) was run?
The AC50 was 1000 to 5000 nM.

How did the AC50 turn out when `CNC(C)(C)c1nc(C)c(C(=O)N2CCc3[nH]cnc3C2c2nc3cc(F)ccc3o2)o1` (single isomer, unassigned) [4R enantiomer of (2-{5-[4-(5-fluoro-1,3-benzoxazol-2-yl)-1H,] was run?
Its AC50 is at least 5000 nM.

How did the AC50 turn out when `O=C(CCc1nccs1)N1CCc2[nH]cnc2C1c1nc2ccc(Br)cc2o1` (stereo not drawn) was run?
The AC50 was 1000 to 5000 nM.

How did the AC50 turn out when `Cc1nc(C2(O)CC2)oc1C(=O)N1CCc2[nH]cnc2C1c1nc2cc(F)ccc2o1` (stereo not drawn) was run?
Its AC50 is at least 5000 nM.

How did the AC50 turn out when `COc1cccc2nc(C3c4nc[nH]c4CCN3C(=O)c3cc(C(C)(C)C)nn3C)oc12` (stereo not drawn) was run?
Its AC50 is at least 5000 nM.

For `Cc1ccc2nc(C3c4nc[nH]c4CCN3C(=O)c3cnn4cc(CCN(C)C)ccc34)oc2c1` (stereo not drawn), which AC50 is on record?
Its AC50 is at least 5000 nM.

Which AC50 does the source give for `CN(C)Cc1nnc(C(=O)N2CCc3[nH]cnc3C2c2nc3cc(F)ccc3o2)o1` (stereo not drawn) here?
The AC50 was 1000 to 5000 nM.

For `CNc1ccc2c(C(=O)N3CCc4[nH]cnc4C3c3nc4cc(F)ccc4o3)cnn2c1` (stereo not drawn), which AC50 is on record?
Its AC50 is 1000 to 5000 nM.
